Key:
U937 cells = experiment: Cellular assay in U937 cells to measure activity of RIPK1-inhibitors on cell death (necroptosis); type: cell-based; conditions: overnight (18 to 24 hrs), 37° C., MTS readout
Excerpt: Upon TNF-Receptor I ligation, Ser/Thr kinase RIPK1 is recruited to a transient receptor complex I. Upon modification of RIPK1 which promotes activation of RIPK1, complex lib can form, that involves recruitment of RIPK3 and MLKL (mixed lineage-kinase domain-like protein) which then translocates from the cytosol to the plasma membrane to execute cell death (Cai, Z. et al, Nat. Cell Biol. (2014)16:55-65).
Cell death was quantified in 96 well plates by determination of the amount of live cell using a CellTiter 96 Aqueous reagent (Promega), a calorimetric method to measure the number of live cells by reducing tetrazolium compound [3-(4,5-dimethylthiazol-2-yl)-5-(3-carboxymethoxyphenyl)-2-(4-sulfophenyl)-2H-tetrazolium, inner salt; MTS] into formazan. Absorbance of formazan was read at 490 nm. The inhibitory activity of the test compound was quantified in a concentration response curve (CRC) experiment.
Compounds were obtained as 10 mM stock solutions and were diluted 1 to 10 volumes with DMSO to yield a 1 mM solution. From this solution 2 μl were diluted with 998 μl growth medium. 100 μl of 2 μM compound solution was further diluted sequentially with a dilution factor of 2.5 by adding 150 μl growth medium. A total of 10 concentrations were tested ranging from 10 μM to 0.26 nM or from 1 μM to 0.07 nM.
U937 cells were cultured in RPM11640 Glutamax and 10% heat inactivated FBS. 50 μl cell suspension containing 1×10^6 cells/ml supplemented with 50 μM zVAD.fmk (Benzyloxycarbonyl-Val-Ala-Asp (Ome) fluoromethylketone) and 100 ng/ml recombinant human TNFα were dispensed in each well of a 96-well plate. 50 μl of compound dilutions (described in Cellular assay in U937 cells) were added and the cell suspension incubated overnight (18 to 24 hrs) at 37° C., 5% CO2 in a humidified atmosphere (95% rH). High (no compound) and low control (no TNFα, zVAD.fmk) were tested with 7 replicates; all compound concentrations were tested in duplicates on each experimental plate.
CellTiter 96 Aqueous reagent was mixed (100 μl PMS (phenazine methosulfate) solution/2 ml MTS (3-(4,5-[…])-5-(3-carboxymethoxyphenyl)-2-(4-sulfophenyl)-2H-tetrazolium, inner salt) solution) and 20 μl were added per well. After 4 hrs incubation at 37° C. (5% CO2 95% rH) optical density was measured at 490 nm on a microplate reader (Tecan Infinite M1000).
The % inhibition is expressed as percentage of the maximal inhibition value obtained in the absence of TNFα/zVAD.fmc.

[1] = target: T1, hRIPK1 (aa 1-375) fusion protein (Homo sapiens, UniProt Q13546); experiment: Receptor-Interacting Protein Kinase 1 inhibition, ADP Glo assay (conversion of ATP to ADP due to autophosphorylation); type: biochemical; conditions: ATP 50 μM, 30 min preincubation, 240 min incubation, room temperature, DMSO 1%
T1 construct: hRIPK1 (aa 1-375) fusion protein
T1 sequence (Q13546 1-375): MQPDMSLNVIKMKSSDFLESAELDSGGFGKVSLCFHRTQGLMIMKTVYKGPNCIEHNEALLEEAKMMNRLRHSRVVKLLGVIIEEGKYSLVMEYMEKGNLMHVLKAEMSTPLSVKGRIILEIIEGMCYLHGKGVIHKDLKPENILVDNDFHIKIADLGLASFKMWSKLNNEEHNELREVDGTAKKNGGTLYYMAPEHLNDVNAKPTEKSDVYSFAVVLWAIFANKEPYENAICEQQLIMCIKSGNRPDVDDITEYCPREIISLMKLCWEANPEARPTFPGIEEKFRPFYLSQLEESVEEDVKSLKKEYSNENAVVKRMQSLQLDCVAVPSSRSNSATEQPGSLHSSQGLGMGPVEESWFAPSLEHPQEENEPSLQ
Experimental: The catalytic activity of RIPK1 was measured by monitoring the conversion of Adenosine triphosphate (ATP) to Adenosine diphosphate (ADP) due to autophosphorylation using an ADP-Glo kinase kit (Promega, catalog no. V9104).
In detail, 2 μl recombinantly produced hRIPK1 (aa 1-375) fusion protein (end concentration 3.6 μg/ml) and 2 μl compound (end concentration 33300-1.69 nM; DMSO end concentration 1%) were incubated for 30 minutes at room temperature and then 2 μl ATP (ADP Glo kit, end concentration 50 μM) were added. After another 240 minutes incubation at room temperature, 5 μl Promega ADP-Glo reagent I was added to quench the reaction and deplete unconsumed ATP. After an incubation period of 30 minutes, 10 μl Promega ADP-Glo detection reagent II was added resulting in conversion of ADP to ATP, which generates a light-reaction between luciferase and luciferin. Luminescence was quantified after 30 minutes with a Pherastar FS (BMG LABTECH, Ortenberg).
The adjustment was obtained by nonlinear regression using the Levenberg Marquardt algorithm.

[2] = Homo sapiens, U-937, TNFα/zVAD.fmk induced cell death (necroptosis)
[3] = TNFα/zVAD.fmk induced cell death (necroptosis)

IC50 [1] [nM]	Compound	IC50 (U937 cells; [2]) [nM]	IC50 (U937 cells; [3]) [nM]
28	N#Cc1cc(F)cc([C@@H]2CCON2C(=O)[C@H]2C[C@@H](Nc3ccc(F)c(C#N)c3)C2)c1 [Compound 32, cis-5-((3-((S)-3-(3-cyano-5-fluorophenyl)isoxazolidine-2-carbonyl)cyclobutyl)amino)-2-fluorobenzonitrile]	50	
22	N#Cc1cc(N[C@H]2C[C@@H](C(=O)N3OCC[C@H]3c3cncc(F)c3)C2)ccc1F [Compound 33, cis-2-fluoro-5-((3-((S)-3-(5-fluoropyridin-3-yl)isoxazolidine-2-carbonyl)cyclobutyl)amino)benzonitrile]		61
20	N#Cc1cc(NC[C@H]2CC[C@H](C(=O)N3OCC[C@H]3c3cncc(F)c3)CC2)ccc1F [Compound 34, trans-2-fluoro-5-(((4-((S)-3-(5-fluoropyridin-3-yl)isoxazolidine-2-carbonyl)cyclohexyl)methyl)amino)benzonitrile]	11	
18	N#Cc1cc(F)cc([C@@H]2CCON2C(=O)[C@H]2CC[C@H](CNc3ccc(F)c(C#N)c3)CC2)c1 [Compound 35, trans-5-(((4-((S)-3-(3-cyano-5-fluorophenyl)isoxazolidine-2-carbonyl)cyclohexyl)methyl)amino)-2-fluorobenzonitrile]		4
42	N#Cc1cc(F)cc(N[C@H]2C[C@@H](C(=O)N3OCC[C@H]3c3cncc(F)c3)C2)c1 [Compound 36, cis-3-fluoro-5-((3-((S)-3-(5-fluoropyridin-3-yl)isoxazolidine-2-carbonyl)cyclobutyl)amino)benzonitrile]	98	
34	N#Cc1cc(F)cc(N[C@H]2C[C@@H](C(=O)N3OCC[C@H]3c3cc(F)cc(C#N)c3)C2)c1 [Compound 37, cis-3-((S)-2-(3-((3-cyano-5-fluorophenyl)amino)cyclobutane-1-carbonyl)isoxazolidin-3-yl)-5-fluorobenzonitrile]	45	
27	N#Cc1cc(F)cc(NC[C@H]2CC[C@H](C(=O)N3OCC[C@H]3c3cc(F)cc(C#N)c3)CC2)c1 [Compound 38, trans-3-((S)-2-(4-(((3-cyano-5-fluorophenyl)amino)methyl)cyclohexane-1-carbonyl)isoxazolidin-3-yl)-5-fluorobenzonitrile]	22	
111	N#Cc1cc(F)cc(N[C@H]2CC[C@@H](C(=O)N3OCC[C@H]3c3cc(F)cc(C#N)c3)CC2)c1 [Compound 39, cis-3-((S)-2-(4-((3-cyano-5-fluorophenyl)amino)cyclohexane-1-carbonyl)isoxazolidin-3-yl)-5-fluorobenzonitrile]	401	
18	N#Cc1cc(F)cc([C@@H]2CCON2C(=O)[C@H]2C[C@@H](n3cnc4ccccc43)C2)c1 [Compound 40, cis-3-((S)-2-(3-(1H-benzo[d]imidazol-1-yl)cyclobutane-1-carbonyl)isoxazolidin-3-yl)-5-fluorobenzonitrile]	262	
16	O=C([C@H]1C[C@@H](n2cnc3ccccc32)C1)N1OCC[C@H]1c1cc(F)cc(F)c1 [Compound 41, cis-(3-(1H-benzo[d]imidazol-1-yl)cyclobutyl)((S)-3-(3,5-difluorophenyl)isoxazolidin-2-yl)methanone]	61	
156	O=C([C@H]1C[C@@H](n2cnc3ccccc32)C1)N1OCC[C@H]1c1cncc(F)c1 [Compound 42, cis-(3-(1H-benzo[d]imidazol-1-yl)cyclobutyl)((S)-3-(5-fluoropyridin-3-yl)isoxazolidin-2-yl)methanone]	921	
11	N#Cc1cc(OC[C@H]2CC[C@H](C(=O)N3OCC[C@H]3c3cc(F)cc(F)c3)CC2)ccc1F [Compound 43, trans-5-((4-((S)-3-(3,5-difluorophenyl)isoxazolidine-2-carbonyl)cyclohexyl)methoxy)-2-fluorobenzonitrile]	2	
27	N#Cc1cc(F)cc([C@@H]2CCON2C(=O)[C@H]2CC[C@H](COc3ccc(F)c(C#N)c3)CC2)c1 [Compound 44, trans-5-((4-((S)-3-(3-cyano-5-fluorophenyl)isoxazolidine-2-carbonyl)cyclohexyl)methoxy)-2-fluorobenzonitrile]	5	
44	N#Cc1cc(OC[C@H]2CC[C@H](C(=O)N3OCC[C@H]3c3cc(F)cc(F)c3)CC2)ncn1 [Compound 45, trans-6-((4-((S)-3-(3,5-difluorophenyl)isoxazolidine-2-carbonyl)cyclohexyl)methoxy)pyrimidine-4-carbonitrile]	38	
41	O=C([C@H]1CC[C@H](COc2cc(Cl)ncn2)CC1)N1OCC[C@H]1c1cc(F)cc(F)c1 [Compound 46, trans-(4-(((6-chloropyrimidin-4-yl)oxy)methyl)cyclohexyl)((S)-3-(3,5-difluorophenyl)isoxazolidin-2-yl)methanone]	14	
50	NC(=O)c1cc(OC[C@H]2CC[C@H](C(=O)N3OCC[C@H]3c3cc(F)cc(F)c3)CC2)ncn1 [Compound 47, trans-6-((4-((S)-3-(3,5-difluorophenyl)isoxazolidine-2-carbonyl)cyclohexyl)methoxy)pyrimidine-4-carboxamide]	21	
44	N#Cc1cc(F)cc(OC[C@H]2CC[C@H](C(=O)N3OCC[C@H]3c3cc(F)cc(F)c3)CC2)c1 [Compound 48, trans-3-((4-((S)-3-(3,5-difluorophenyl)isoxazolidine-2-carbonyl)cyclohexyl)methoxy)-5-fluorobenzonitrile]	13	
44	N#Cc1cc(F)cc(OC[C@H]2CC[C@H](C(=O)N3OCC[C@H]3c3cc(F)cc(C#N)c3)CC2)c1 [Compound 49, trans-3-((S)-2-(4-((3-cyano-5-fluorophenoxy)methyl)cyclohexane-1-carbonyl)isoxazolidin-3-yl)-5-fluorobenzonitrile]	18	
18	N#Cc1cc(OC[C@H]2CC[C@@H](C(=O)N3OCC[C@H]3c3cc(F)cc(F)c3)CC2)ccc1F [Compound 52, cis-5-((4-((S)-3-(3,5-difluorophenyl)isoxazolidine-2-carbonyl)cyclohexyl)methoxy)-2-fluorobenzonitrile]	6	

Compound	IC50 [1] [nM]	IC50 (U937 cells; [2]) [nM]	IC50 (U937 cells; [3]) [nM]
N#Cc1cc(F)cc(O[C@H]2C[C@H](C(=O)N3OCC[C@H]3c3cc(F)cc(F)c3)C2)c1 [Compound 50, trans-3-(3-((S)-3-(3,5-difluorophenyl)isoxazolidine-2-carbonyl)cyclobutoxy)-5-fluorobenzonitrile]	25	130	
N#Cc1cc(O[C@H]2C[C@H](C(=O)N3OCC[C@H]3c3cc(F)cc(F)c3)C2)ccc1F [Compound 51, trans-5-(3-((S)-3-(3,5-difluorophenyl)isoxazolidine-2-carbonyl)cyclobutoxy)-2-fluorobenzonitrile]	21	6	

Source: patent US20260317312A1, “ISOXAZOLIDINES AS RIPK1 INHIBITORS AND USE THEREOF” (GENZYME CORPORATION, priority 2023, published 2026)
